Data as given in patent publication US8273761B2, “Tricyclic compound and medical use thereof” (Takeda Pharmaceutical Company Limited, priority 2006, dated 2012).

Assays:
[1] = biological target: T1, human melatonin 2 receptors (human MT2 receptors) (Homo sapiens, UniProt P49286); assay: Melatonin receptor binding inhibitory test (MT2); details: 2-[125I] Iodomelatonin 1 nM solution, membrane fraction of CHO-hMT2 cells, 25° C. for 2.5 hr
T1 construct: expressed in transfected cells
T1 sequence (P49286 1-362): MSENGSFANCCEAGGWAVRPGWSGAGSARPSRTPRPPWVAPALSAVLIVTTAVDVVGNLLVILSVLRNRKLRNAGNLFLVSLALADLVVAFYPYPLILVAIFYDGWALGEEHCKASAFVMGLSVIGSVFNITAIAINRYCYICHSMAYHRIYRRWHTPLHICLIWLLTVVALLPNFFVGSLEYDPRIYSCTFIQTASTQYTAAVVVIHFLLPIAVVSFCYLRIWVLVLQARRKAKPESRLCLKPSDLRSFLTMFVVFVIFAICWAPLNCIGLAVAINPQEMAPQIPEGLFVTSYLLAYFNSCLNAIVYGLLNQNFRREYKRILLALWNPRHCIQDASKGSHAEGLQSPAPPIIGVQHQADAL
Protocol: Melatonin Receptor Binding Inhibitory Test (2) Preparation of CHO-hMT2 Cells Expressing Human Melatonin 2 Receptors A cDNA fragment (SEQ ID NO: 2) encoding full-length of human melatonin 2 receptors (human MT2 receptors) was incorporated into expression vector pCMV-Script (Stratagene, #212220) to give the plasmid that was pCMV-human MT2 receptors expression vector for animal cell expression. CHO-K1 cells (ATCC, #CCL-61) were plated at the concentration of 1.5×10^5 cells/cm^2 in a 6 well plate (ASAHI TECHNO GLASS), and cultured under the conditions of 37° C., 5% CO2 for 24 hr. For gene transfection, solution obtained by blending pCMV-human MT2 receptors expression vector (1.9 μg), Lipofectamine Transfection Reagent (Invitrogen, #18324-012) (11.3 μL) and Minimum Essential Medium Eagle (MEM) medium (Sigma, M8042) (93.8 μL), and reacting at room temperature for 20 min was added to the cells per one well. The transfected cells were cultured in MEM medium containing 10% FBS (Life Technology) and 300 μg/mL Geneticin (GIBCO, #10131), and the cell line that stably expressed the plasmid gene was selected. By a receptor binding assay using 2-[^125I] […] (3) Preparation of Cellular Membrane Fraction of CHO Cell (CHO-hMelR7 and CHO-hMT2) Stably Expressing Human MT1 and MT2 Receptors CHO-hMelR7 and CHO-hMT2 cells were plated using Cellfactory (Nunc, #170009) under the conditions of 1×10^8 cells/2000 mL/flask. The cells were grown to confluent, and recovered by the following method. As the medium for CHO-hMelR7 and CHO-hMT2, MEM α containing 10% FBS and penicillin/streptomycin was used. 300 ng/mL of geneticin was added to the medium for CHO-hMT2. The medium was discarded, cells were washed twice with 200 mL of EDTA/PBS(-), 200 mL of EDTA/PBS(-) was further added, and the cells were stood still at room temperature for 20 min until they were released. The cells were recovered in four 50 mL tubes (Becton Dickinson, #352070), and centrifuged at 1,500 rpm for 10 min at 4° C. using a low speed cooling centrifuge (Hitachi, CF7D2). The supernatant was discarded, the pellets in the four tubes were suspended in 10 mL of PBS(-), and combined in one tube (Becton Dickinson, #352070). The mixture was further centrifuged at 1,500 rpm for 10 min at 4° C., and the obtained pellets were suspended in 20 mL of ice-cooled homogenizing buffer [10 mM NaHCO3, 5 mM EDTA, Protease inhibitor Complete (Roche), pH 7.4]. The cell suspension was homogenized 3 times using a polytron homogenizer at 20,000 rpm for 30 sec. The obtained homogenate was centrifuged (2,000 rpm, 10 min, 4° C.) using a low speed cooling centrifuge. The supernatant was recovered in an ultracentrifugation tube and ultracentrifuged (40,000 rpm, 60 min, 4° C.) using an ultracentrifuge (Beckman, […]). To the obtained pellets was added a suspending buffer [50 mM Tris-HCl, 1 mM EDTA, Protease inhibitor Complete (Roche), pH 7.4], and the pellets were suspended by pipetting. The protein concentration of this suspension was measured, diluted to 2 mg/mL to give cellular membrane fractions of CHO-hMelR7 and CHO-hMT2 cells. […] Protein was quantified using BCA protein assay kit (Pierce) with BSA as the standard. (4) Preparation of Membrane Fraction Suspension Immediately before use, the membrane fractions of CHO-hMelR7 and CHO-hMT2 cells of the above-mentioned (3) were diluted 20-fold with assay buffer (50 mM Tris-HCl, pH 7.7). (5) Preparation of 2-[^125I] […] (6) Binding Reaction The assay buffer (80 μL) of the above-mentioned (4) was added to each well of a 96-well plate (type 3363, Corning). […] (7) Measurement Using a cell harvester (PerkinElmer), the binding reaction mixture in each well of the 96-well plate was transferred to a treated (immersed in 50 mM Tris, pH 7.7 in advance) filter plate (UniFilter GF/C, PerkinElmer) and filtered.

Row | IC50 [1] [nM] | melting point [°C] | SMILES
1 | ≤ 100 | – | CC(=O)NCCC1CCc2cnc3c(c21)CCO3 (single isomer, unassigned) [Example 20, optically active N-[2-(1,6,7,8-tetrahydro-2H-cyclopenta[d]furo[2,3-b]pyridin-8-yl)ethyl]acetamide]
2 | ≤ 100 | – | CCC(=O)NCCC1CCc2cnc3c(c21)CCO3 (single isomer, unassigned) [Example 23, optically active N-[2-(1,6,7,8-tetrahydro-2H-cyclopenta[d]furo[2,3-b]pyridin-8-yl)ethyl]propanamide]
3 | ≤ 100 | 161 to 163 | CCC(=O)NCCc1c(-c2ccccc2)nn2ccc3occc3c12 [Example 2, N-[2-(2-phenylfuro[3,2-c]pyrazolo[1,5-a]pyridin-1-yl)ethyl]propanamide]
4 | ≤ 100 | 174 to 175 | CC(=O)NCCc1cnn2ccc3c(c12)CCO3 [Example 3, N-[2-(8,9-dihydrofuro[3,2-c]pyrazolo[1,5-a]pyridin-1-yl)ethyl]acetamide]
5 | ≤ 100 | 96 to 97 | CCC(=O)NCCc1cnn2ccc3c(c12)CCO3 [Example 4, N-[2-(8,9-dihydrofuro[3,2-c]pyrazolo[1,5-a]pyridin-1-yl)ethyl]propanamide]
6 | ≤ 100 | 58 to 59 | CCCC(=O)NCCc1cnn2ccc3c(c12)CCO3 [Example 5, N-[2-(8,9-dihydrofuro[3,2-c]pyrazolo[1,5-a]pyridin-1-yl)ethyl]butanamide]
7 | ≤ 100 | 169 to 170 | CCC(=O)NCCc1c(-c2ccccc2)nn2ccc3c(c12)CCO3 [Example 8, N-[2-(2-phenyl-8,9-dihydrofuro[3,2-c]pyrazolo[1,5-a]pyridin-1-yl)ethyl]propanamide]
8 | ≤ 100 | 160 to 162 | CC(=O)NCCc1c(-c2ccc(F)cc2)nn2ccc3c(c12)CCO3 [Example 15, N-{2-[2-(4-fluorophenyl)-8,9-dihydrofuro[3,2-c]pyrazolo[1,5-a]pyridin-1-yl]ethyl}acetamide]
9 | ≤ 100 | 170 to 171 | CCC(=O)NCCc1c(-c2ccc(F)cc2)nn2ccc3c(c12)CCO3 [Example 16, N-{2-[2-(4-fluorophenyl)-8,9-dihydrofuro[3,2-c]pyrazolo[1,5-a]pyridin-1-yl]ethyl}propanamide]
10 | ≤ 100 | – | CC(=O)NCCc1c(-c2ccccc2)cn2ccc3c(c12)CCO3 [Example 17, N-[2-(8-phenyl-1,2-dihydrofuro[2,3-g]indolizin-9-yl)ethyl]acetamide]
11 | ≤ 100 | – | CCC(=O)NCCC1CCc2cnc3c(c21)CCO3 (stereo not shown) [Example 22, N-[2-(1,6,7,8-tetrahydro-2H-cyclopenta[d]furo[2,3-b]pyridin-8-yl)ethyl]propanamide]
12 | ≤ 100 | – | CCCC(=O)NCCC1CCc2cnc3c(c21)CCO3 (stereo not shown) [Example 25, N-[2-(1,6,7,8-tetrahydro-2H-cyclopenta[d]furo[2,3-b]pyridin-8-yl)ethyl]butanamide]
13 | ≤ 100 | 111 to 112 | CCC(=O)NCCC1=CCc2cnc3c(c21)CCO3 [Example 29, N-[2-(1,6-dihydro-2H-cyclopenta[d]furo[2,3-b]pyridin-8-yl)ethyl]propanamide]
14 | ≤ 100 | 164 to 166 | CC(=O)NCCC1=C(C(C)C)Cc2cnc3c(c21)CCO3 [Example 30, N-[2-(7-isopropyl-1,6-dihydro-2H-cyclopenta[d]furo[2,3-b]pyridin-8-yl)ethyl]acetamide]
15 | ≤ 100 | 168 to 170 | CCC(=O)NCCC1=C(C(C)C)Cc2cnc3c(c21)CCO3 [Example 31, N-[2-(7-isopropyl-1,6-dihydro-2H-cyclopenta[d]furo[2,3-b]pyridin-8-yl)ethyl]propanamide]
16 | ≤ 100 | 151 to 153 | CCc1nn2ccc3c(c2c1C(C)CNC(C)=O)CCO3 (stereo not shown) [Example 37, N-[2-(2-ethyl-8,9-dihydrofuro[3,2-c]pyrazolo[1,5-a]pyridin-1-yl)propyl]acetamide]
17 | ≤ 100 | 173 to 175 | CCC(=O)NCC(C)c1c(CC)nn2ccc3c(c12)CCO3 (stereo not shown) [Example 38, N-[2-(2-ethyl-8,9-dihydrofuro[3,2-c]pyrazolo[1,5-a]pyridin-1-yl)propyl]propanamide]
18 | ≤ 100 | 128 to 129 | CCc1nn2ccc3oc(C)cc3c2c1CCNC(C)=O [Example 39, N-[2-(2-ethyl-8-methylfuro[3,2-c]pyrazolo[1,5-a]pyridin-1-yl)ethyl]acetamide]
